{"source": "patent US9681659B2", "about": "“Agrochemical formulation comprising encapsulated pesticide” (BASF SE, priority 2011, dated 2017)", "origin": "cited, not measured here", "data": [{"smiles": "CC1=CC(=O)CC(C)(C)C1", "note": "[isoporone]", "values": [{"measurement": "solubility values (in water)", "setting": "all data at 20° C., examples for aprotic, polar solvent B", "value": 15, "unit": "mg/mL"}]}, {"smiles": "COc1cc(C)c(C(=O)c2c(OC)ccc(Br)c2C)c(OC)c1OC", "note": "[metrafenon]", "values": [{"measurement": "solubilities in water", "setting": "in water, examples for pesticide A", "value": 0.5, "unit": "mg/L"}]}]}
